The source of these data is publication PMC8667045, “Into Deep Water: Optimizing BCL6 Inhibitors by Growing into a Solvated Pocket” (Journal of Medicinal Chemistry, 2021).

One series concerns the target BCL6 BTB domain (Homo sapiens, UniProt P41182). Nature of the series: biochemical. Conditions: for BCL6 TR-FRET pIC50 mean: mean of n replicates. The method, then: Supplementary experimental: protein production, purification and crystallography
3C protease cleavage site.
used without cleaving the tag, as a 6His was needed to bind to the anti-6His-Terbium antibody. For
For both plasmid constructs described above, transformed BL21-AI E. coli cells were grown in LB
carried out at 18 °C for 18 hours. Cells were harvested by centrifugation (5500 g for 30 minutes at 4
oC) and stored at -80 °C.
Cells were re-suspended in a buffer composed of 20 mM Tris pH 8, 250 mM NaCl, 1 mM MgCl2, 0.5
Cells were lysed by sonication followed by centrifugation at 21,000 g for 45 minutes at 4 °C. […]
The final protein was assessed for purity
and molar mass by SDS-PAGE and high-resolution mass spectrometry, respectively.
directly eluted from the HisTrap FF column without HRV-3C treatment, and submitted to Superdex75
gel filtration as described above. […]
2. Supplementary experimental: biological assay conditions
IC50 values were determined using
a sigmoidal four-parameter logistic fit equation.
In general terms: TR-FRET usually uses a lanthanide donor and a delayed reading to cut background.

A further series in a line: NMR solubility assay. Format: physicochemical. Conditions: HEPES buffer, 5% DMSO, room temperature. The method, then: 3. Supplementary experimental: physicochemical assays
The plate was then sealed and incubated at room temperature for 20 hours, without shaking. The plate was centrifuged again for 1 minute at […]
spectrometer equipped with a 5 mm TCI-CryoProbe. […]
deuterated solvent. […] All NMR data were acquired at the […]
contained 16k time-domain data points. Relaxation delay was set to 20 sec. […]

Series [1] is described as follows: PAMPA passive permeability pH 7.4. Conditions: for PAMPA7.4: pH 7.4, passive permeability Pe. (In general: PAMPA measures passive passage across an artificial lipid membrane.)
The mark [2] stands for this setting: TR-FRET IC50 individual replicates, single replicates, italic values used 10nM BCL6, otherwise 1nM BCL6.
Setting [3] is: read-out: BCL6 TR-FRET Geo Mean IC50, geometric mean of n replicates, supplement.
The mark [4] stands for this setting: read-out: TR-FRET IC50, tables and figures.
Setting [5] is: read-out: TR-FRET IC50 individual replicates, single replicates, italic values used 10nM BCL6, otherwise 1nM BCL6.

Converted amounts (≈) assume the structure as drawn. “And” between values parts separate entries of the source, which are not always exact repeats. Equal entries are not always repeated. Where two headings read alike, the source gives them in different places.

By IC50 is commonly meant the concentration needed to halve the response being measured. As a reminder, the solubility is the dissolved amount per volume that the medium holds. Low readings indicate a poorly soluble substance, high ones a readily soluble substance. Broadly, the Papp is the rate of passage across a membrane or cell layer, normalised by area and donor concentration. High values mean fast passage, low ones slow passage.

Consider `CNC(=O)C(Nc1cc(=O)[nH]c2ccc(Nc3ccnc(Cl)c3C#N)cc12)C1CC1` (stereo not shown) [Compound 12d, 2-((6-((2-Chloro-3-cyanopyridin-4-yl)amino)-2-oxo-1,2-dihydroquinolin-4-yl)amino)-2-cyclopropyl-N-methylacetamide], for which the concentration for half-maximal inhibition (IC50) at BCL6 BTB domain (setting [2]) was 1180 nM and 970 nM; on BCL6 BTB domain (setting [3]), 1080 nM; at BCL6 BTB domain (setting [4]), 1080 nM; on BCL6 BTB domain (setting [5]), 1100 nM. The “BCL6 TR-FRET pIC50 mean” value on BCL6 BTB domain is 5.97 and 5.967. This compound displayed a solubility at 20 h in the series “NMR solubility assay” of 52 µM (≈ 22 µg/mL).

On to `CC(Nc1cc(=O)n(C)c2ccc(Nc3ccnc(Cl)c3C#N)cc12)c1ncn(C)n1` (stereo not shown) [Compound 13d, 2-Chloro-4-((1-methyl-4-((1-(1-methyl-1H-1,2,4-triazol-3-yl)ethyl)amino)-2-oxo-1,2-dihydroquinolin-6-yl)amino)nicotinonitrile], for which the concentration in solution in the series “NMR solubility assay” (solubility at 20 h) was 258 µM (≈ 112 µg/mL).

Consider `CNC(=O)C(C)Nc1cc(=O)n(C)c2ccc(Nc3ccnc(Cl)c3C#N)cc12` (stereo not shown) [Compound 13a, 2-((6-((2-Chloro-3-cyanopyridin-4-yl)amino)-1-methyl-2-oxo-1,2-dihydroquinolin-4-yl)amino)-N-methylpropanamide], for which the PAMPA7.4 in series [1] is listed as <0.2 x10^-6 cms^-1. The compound also came in with a solubility at 20 h in “NMR solubility assay” of 184 µM (≈ 75.6 µg/mL).

Turning to `CC(Nc1cc(=O)n(CC2CCC2)c2ccc(Nc3ccnc(Cl)c3C#N)cc12)c1ncccn1` (stereo not shown) [Compound 17b, 2-Chloro-4-((1-(cyclobutylmethyl)-2-oxo-4-((1-(pyrimidin-2-yl)ethyl)amino)-1,2-dihydroquinolin-6-yl)amino)nicotinonitrile], the IC50 against BCL6 BTB domain (setting [2]) is 250 nM and 210 nM and 640 nM; on BCL6 BTB domain (setting [3]) it was 324 nM; at BCL6 BTB domain (setting [4]), 320 nM. In addition, the “BCL6 TR-FRET pIC50 mean” value at BCL6 BTB domain is 6.49 and 6.489. Further, the PAMPA7.4 in series [1] is 21 x10^-6 cms^-1. Also, the concentration in solution in “NMR solubility assay” (solubility at 20 h) was 32 µM (≈ 15.6 µg/mL).

On to `CCNc1cc(=O)n(C)c2ccc(Nc3cc(C(=O)O)nc(Cl)c3C#N)cc12` [Compound 11a, 6-Chloro-5-cyano-4-((4-(ethylamino)-1-methyl-2-oxo-1,2-dihydroquinolin-6-yl)amino)picolinic Acid], for which the IC50 at BCL6 BTB domain (setting [2]) is 810 nM and 840 nM and 1120 nM; at BCL6 BTB domain (setting [3]), 901 nM; at BCL6 BTB domain (setting [4]) it was 900 nM; on BCL6 BTB domain (setting [5]) it was 890 nM and 870 nM. For the same compound, the “BCL6 TR-FRET pIC50 mean” value on BCL6 BTB domain is 6.05 and 6.045. Moreover, the solubility at 20 h in the series “NMR solubility assay” worked out at 237 µM (≈ 94.3 µg/mL).

For `CC(Nc1cc(=O)n(CC2CC2)c2ccc(Nc3ccnc(Cl)c3C#N)cc12)c1ncccn1` (stereo not shown) [Compound 17a, 2-Chloro-4-((1-(cyclopropylmethyl)-2-oxo-4-((1-(pyrimidin-2-yl)ethyl)amino)-1,2-dihydroquinolin-6-yl)amino)nicotinonitrile], the IC50 at BCL6 BTB domain (setting [2]) is 230 nM and 790 nM; at BCL6 BTB domain (setting [3]) it was 418 nM; on BCL6 BTB domain (setting [4]) it was 420 nM; at BCL6 BTB domain (setting [5]), 410 nM. For the same compound, the “BCL6 TR-FRET pIC50 mean” value at BCL6 BTB domain is 6.38 and 6.379. For the same compound, in series [1], the PAMPA7.4 was 8.5 x10^-6 cms^-1. The compound further had a solubility at 20 h in “NMR solubility assay” of 72 µM (≈ 34 µg/mL).

In the case of `CNC(=O)[C@@H](C)Nc1cc(=O)[nH]c2ccc(Nc3ccnc(Cl)c3C#N)cc12` [Compound 12b, (R)-2-((6-((2-Chloro-3-cyanopyridin-4-yl)amino)-2-oxo-1,2-dihydroquinolin-4-yl)amino)-N-methylpropanamide], the half-inhibitory concentration (IC50) against BCL6 BTB domain (setting [2]) is 300 nM (2×) and 220 nM and 280 nM and 190 nM; on BCL6 BTB domain (setting [3]), 253 nM; on BCL6 BTB domain (setting [4]), 250 nM; on BCL6 BTB domain (setting [5]), 240 nM and 260 nM. The “BCL6 TR-FRET pIC50 mean” value on BCL6 BTB domain was 6.60 and 6.596. In series [1] (PAMPA, pH 7.4), this compound yielded a Papp of under 0.2 ×10⁻⁶ cm/s. Besides, the PAMPA7.4 entry in series [1] is reported as “no measurable passive permeability”. The same compound registered a solubility at 20 h in “NMR solubility assay” of 64 µM (≈ 25.4 µg/mL).

As to `Cn1c(=O)cc(NCCF)c2cc(Nc3cc(C(=O)O)nc(Cl)c3C#N)ccc21` [Compound 11c, 6-Chloro-5-cyano-4-((4-((2-fluoroethyl)amino)-1-methyl-2-oxo-1,2-dihydroquinolin-6-yl)amino)picolinic Acid], the “BCL6 TR-FRET pIC50 mean” value on BCL6 BTB domain was 6.06 and 6.057. The IC50 at BCL6 BTB domain (setting [3]) is 880 nM and 878 nM; at BCL6 BTB domain (setting [4]), 880 nM; at BCL6 BTB domain (setting [5]), 870 nM and 890 nM and 880 nM. Moreover, the solubility at 20 h in “NMR solubility assay” came to 82 µM (≈ 34.1 µg/mL).

For `Cc1cnc(C(C)Nc2cc(=O)n(C)c3ccc(Nc4ccnc(Cl)c4C#N)cc23)nc1` (stereo not shown) [Compound 24a, 2-Chloro-4-((1-methyl-4-((1-(5-methylpyrimidin-2-yl)ethyl)amino)-2-oxo-1,2-dihydroquinolin-6-yl)amino)nicotinonitrile], the half-inhibitory concentration (IC50) is 60 nM and 90 nM against BCL6 BTB domain (setting [2]); 70 nM and 73.1 nM on BCL6 BTB domain (setting [3]); 73 nM at BCL6 BTB domain (setting [4]); 70 nM at BCL6 BTB domain (setting [5]). Besides, the “BCL6 TR-FRET pIC50 mean” value at BCL6 BTB domain is 7.14 and 7.136. Further, in series [1], the PAMPA7.4 is 5.6 x10^-6 cms^-1. For the same compound, the solubility at 20 h in the series “NMR solubility assay” was 31 µM (≈ 13.8 µg/mL).

With `Cc1nnc(C(C)Nc2cc(=O)n(C)c3ccc(Nc4ccnc(Cl)c4C#N)cc23)o1` (stereo not shown) [Compound 13c, 2-Chloro-4-((1-methyl-4-((1-(5-methyl-1,3,4-oxadiazol-2-yl)ethyl)amino)-2-oxo-1,2-dihydroquinolin-6-yl)amino)nicotinonitrile], the half-maximal inhibitory concentration (IC50) at BCL6 BTB domain (setting [2]) is 1070 nM and 680 nM; on BCL6 BTB domain (setting [3]) it was 872 nM; at BCL6 BTB domain (setting [4]), 870 nM; at BCL6 BTB domain (setting [5]), 690 nM and 1180 nM and 840 nM. Further, at BCL6 BTB domain, the “BCL6 TR-FRET pIC50 mean” value was 6.06 and 6.059. Also, the PAMPA7.4 in series [1] was <0.2 x10^-6 cms^-1. Besides, the concentration in solution in “NMR solubility assay” (solubility at 20 h) was 247 µM (≈ 108 µg/mL).

On to `Cn1c(=O)cc(NCC2CC2)c2cc(Nc3cc(C(=O)O)nc(Cl)c3C#N)ccc21` [Compound 11d, 6-Chloro-5-cyano-4-((4-((cyclopropylmethyl)amino)-1-methyl-2-oxo-1,2-dihydroquinolin-6-yl)amino)picolinic Acid], for which the concentration for half-maximal inhibition (IC50) against BCL6 BTB domain (setting [2]) is 270 nM and 420 nM; on BCL6 BTB domain (setting [3]) it was 350 nM and 346 nM; on BCL6 BTB domain (setting [4]), 350 nM; at BCL6 BTB domain (setting [5]), 360 nM and 350 nM. The “BCL6 TR-FRET pIC50 mean” value on BCL6 BTB domain is 6.46 and 6.461. The compound further came in with a solubility at 20 h in the series “NMR solubility assay” of 324 µM (≈ 137 µg/mL).

Turning to `C[C@@H](Nc1cc(=O)n(C)c2ccc(Nc3ccnc(Cl)c3C#N)cc12)c1ncccn1` [Compound 13f, (R)-2-Chloro-4-((1-methyl-2-oxo-4-((1-(pyrimidin-2-yl)ethyl)amino)-1,2-dihydroquinolin-6-yl)amino)nicotinonitrile], the PAMPA7.4 in series [1] is recorded as 0.8 x10^-6 cms^-1. This compound also had a solubility at 20 h in the series “NMR solubility assay” of 126 µM (≈ 54.4 µg/mL).

As for `CCCNc1cc(=O)n(C)c2ccc(Nc3cc(C(=O)O)nc(Cl)c3C#N)cc12` [Compound 11b, 6-Chloro-5-cyano-4-((1-methyl-2-oxo-4-(propylamino)-1,2-dihydroquinolin-6-yl)amino)picolinic Acid], the IC50 on BCL6 BTB domain (setting [2]) is 1330 nM and 1810 nM; at BCL6 BTB domain (setting [3]), 1510 nM; on BCL6 BTB domain (setting [4]), 1510 nM; at BCL6 BTB domain (setting [5]) it was 1440 nM and 1490 nM. At BCL6 BTB domain, the “BCL6 TR-FRET pIC50 mean” value is 5.82 and 5.822. In “NMR solubility assay”, this compound displayed a solubility at 20 h of 40 µM (≈ 16.5 µg/mL).

Regarding `CC(Nc1cc(=O)n(C)c2ccc(Nc3ccnc(Cl)c3C#N)cc12)c1ncc(C2CC2)cn1` (stereo not shown) [Compound 24b, 2-Chloro-4-((4-((1-(5-cyclopropylpyrimidin-2-yl)ethyl)amino)-1-methyl-2-oxo-1,2-dihydroquinolin-6-yl)amino)nicotinonitrile], the PAMPA7.4 in series [1] is listed as 14 x10^-6 cms^-1. The compound further returned a solubility at 20 h in “NMR solubility assay” of 32 µM (≈ 15.1 µg/mL).

For `CNC(=O)[C@H](C)Nc1cc(=O)[nH]c2ccc(Nc3ccnc(Cl)c3C#N)cc12` [Compound 12c, (S)-2-((6-((2-Chloro-3-cyanopyridin-4-yl)amino)-2-oxo-1,2-dihydroquinolin-4-yl)amino)-N-methylpropanamide], the half-maximal inhibitory concentration (IC50) on BCL6 BTB domain (setting [2]) was 3390 nM and 2070 nM and 2270 nM and 3400 nM and 3900 nM and 2940 nM and 1540 nM; at BCL6 BTB domain (setting [3]), 2670 nM; at BCL6 BTB domain (setting [4]) it was 2670 nM. In addition, the “BCL6 TR-FRET pIC50 mean” value on BCL6 BTB domain is 5.57 and 5.574. The compound further displayed a solubility at 20 h in “NMR solubility assay” of 64 µM (≈ 25.4 µg/mL).
